Test results from patent US10745416B2, “Macrocyclic compounds for treating disease” (Turning Point Therapeutics, Inc., priority 2017, dated 2020).

Key:
Experiment in all cases: Cell proliferation assay (CellTiter-Glo, 72 hours)
[1] = biological target: T1, BaF3 EML4-ALK (Homo sapiens, UniProt Q9UM73); type: cell-based; conditions: anti-cell proliferation
T1 construct: The EML4-ALK gene (variant 1) was synthesized at GenScript and cloned into pCDH-CMV-MCS-EF1-Puro plasmid (System Biosciences, Inc); fused on or other part: Q9HC35 (Echinoderm microtubule-associated protein-like 4)
Description: The EML4-ALK gene (variant 1) was synthesized at GenScript and cloned into pCDH-CMV-MCS-EF1-Puro plasmid (System Biosciences, Inc). Ba/F3-EML4-ALK wild type were generated by transducing Ba/F3 cells with lentivirus containing EML4-ALK wide type. Stable cell lines were selected by puromycin treatment, followed by IL-3 withdrawal. Briefly, 5×10^6 Ba/F3 cells were transduced with lentivirus supernatant in the presence of 8 μg/mL protamine sulfate. The transduced cells were subsequently selected with 1 μg/mL puromycin in the presence of IL3-containing medium RPMI1640, plus 10% FBS. After 10-12 days of selection, the surviving cells were further selected for IL3 independent growth.
(§1) Two thousand cells per well were seeded in 384 well white plate for 24 hrs, and then treated with compounds for 72 hours (37° C., 5% CO2). Cell proliferation was measured using CellTiter-Glo luciferase-based ATP detection assay (Promega) following the manufactures's protocol. IC50 determinations were performed using GraphPad Prism software (GraphPad, Inc., San Diego, Calif.).

[2] = tested on: KG-1; type: cell-based, human; conditions: Homo sapiens, KG-1, anti-cell proliferation
Description: (§2) Human medulla thyroid carcinoma cell line TT (containing RET […] mutation) and acute myelogenous cell line KG-1 were purchased from ATCC. Human colon cancer cell line KMI2 (containing TPM3-TRKA) was obtained from NCI.
as §1

[3] = tested on: KM12 cell (TPM3-TRKA); type: cell-based, human; conditions: Homo sapiens, KM12, anti-cell proliferation
Description: as §2, §1

[4] = biological target: T2, BaF3 KIF5B-RET (Homo sapiens, UniProt P07949); type: cell-based; conditions: anti-cell proliferation, read-out: BaF3 KIF5B-RET IC50
T2 construct: fused on or other part: P33176 (Kinesin-1 heavy chain)
From the text: (§3) The KIF5B-RET gene was synthesized at GenScript and cloned into pCDH-CMV-MCS-EF1-Puro plasmid (System Biosciences, Inc). KIF5B-RET point mutation V804M was generated at GenScript by PCR and confirmed by sequencing. Ba/F3-KIF5B-RET wild type and mutant were generated by transducing Ba/F3 cells with lentivirus containing KIF5B-RET wide type or mutant. Stable cell lines were selected by puromycin treatment, followed by IL-3 withdrawal. Briefly, 5×10^6 Ba/F3 cells were transduced with lentivirus supernatant in the presence of 8 μg/mL protamine sulfate. The transduced cells were subsequently selected with 1 µg/mL puromycin in the presence of IL3-containing medium RPMI1640, plus 10% FBS. After 10-12 days of selection, the surviving cells were further selected for IL3 independent growth.
as §1

[5] = biological target: T3, BaF3 KIF5B-RET_G810R (Homo sapiens, UniProt P07949, G810R, cells depend on it); type: cell-based; conditions: anti-cell proliferation, read-out: BaF3 KIF5B-RET_G810R IC50
T3 construct: fused on or other part: P33176 (Kinesin-1 heavy chain)
From the text: [The source words this procedure for another variant and reports this variant under the same test.] as §3, §1

[6] = biological target: T4, BaF3 KIF5B-RET_V804M (Homo sapiens, UniProt P07949, V804M, cells depend on it); type: cell-based; conditions: anti-cell proliferation, read-out: BaF3 KIF5B-RET_V804M IC50
T4 construct: fused on or other part: P33176 (Kinesin-1 heavy chain)
From the text: as §3, §1

T3 sequence (P07949 whole entry G810R, the tested form may be a part): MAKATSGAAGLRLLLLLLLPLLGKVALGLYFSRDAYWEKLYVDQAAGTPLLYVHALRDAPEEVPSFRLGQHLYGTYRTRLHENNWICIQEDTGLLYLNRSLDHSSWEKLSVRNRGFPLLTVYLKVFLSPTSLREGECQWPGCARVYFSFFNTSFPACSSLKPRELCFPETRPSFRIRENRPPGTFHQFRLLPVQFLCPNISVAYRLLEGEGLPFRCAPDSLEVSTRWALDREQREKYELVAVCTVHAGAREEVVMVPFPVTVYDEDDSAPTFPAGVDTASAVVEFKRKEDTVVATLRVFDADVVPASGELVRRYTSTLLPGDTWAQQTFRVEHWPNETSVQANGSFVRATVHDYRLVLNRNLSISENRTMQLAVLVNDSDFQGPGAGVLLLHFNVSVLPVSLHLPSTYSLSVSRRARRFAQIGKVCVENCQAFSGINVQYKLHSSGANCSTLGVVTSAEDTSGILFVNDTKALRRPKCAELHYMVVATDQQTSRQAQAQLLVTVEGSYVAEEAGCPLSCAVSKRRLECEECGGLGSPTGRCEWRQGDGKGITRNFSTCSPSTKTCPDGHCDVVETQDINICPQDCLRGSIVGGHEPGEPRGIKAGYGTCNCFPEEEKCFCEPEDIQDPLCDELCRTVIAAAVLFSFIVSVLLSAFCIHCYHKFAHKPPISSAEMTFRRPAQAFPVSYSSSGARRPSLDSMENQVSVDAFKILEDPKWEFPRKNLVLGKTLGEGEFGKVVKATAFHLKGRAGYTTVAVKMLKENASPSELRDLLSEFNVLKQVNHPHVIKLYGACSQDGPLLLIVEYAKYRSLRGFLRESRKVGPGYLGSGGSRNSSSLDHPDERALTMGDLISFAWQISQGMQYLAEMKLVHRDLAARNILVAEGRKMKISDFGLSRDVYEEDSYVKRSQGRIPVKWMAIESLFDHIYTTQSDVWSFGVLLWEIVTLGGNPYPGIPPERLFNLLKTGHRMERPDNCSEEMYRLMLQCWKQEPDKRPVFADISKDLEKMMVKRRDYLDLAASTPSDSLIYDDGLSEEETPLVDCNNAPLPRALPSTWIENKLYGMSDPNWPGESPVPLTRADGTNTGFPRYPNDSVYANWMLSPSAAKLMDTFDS
T4 sequence (P07949 whole entry V804M, the tested form may be a part): as the sequence (P07949 whole entry G810R, the tested form may be a part) above, with V804M, R810G counted along it
T1 sequence (Q9UM73 whole entry, change not shown, the tested form may be a part): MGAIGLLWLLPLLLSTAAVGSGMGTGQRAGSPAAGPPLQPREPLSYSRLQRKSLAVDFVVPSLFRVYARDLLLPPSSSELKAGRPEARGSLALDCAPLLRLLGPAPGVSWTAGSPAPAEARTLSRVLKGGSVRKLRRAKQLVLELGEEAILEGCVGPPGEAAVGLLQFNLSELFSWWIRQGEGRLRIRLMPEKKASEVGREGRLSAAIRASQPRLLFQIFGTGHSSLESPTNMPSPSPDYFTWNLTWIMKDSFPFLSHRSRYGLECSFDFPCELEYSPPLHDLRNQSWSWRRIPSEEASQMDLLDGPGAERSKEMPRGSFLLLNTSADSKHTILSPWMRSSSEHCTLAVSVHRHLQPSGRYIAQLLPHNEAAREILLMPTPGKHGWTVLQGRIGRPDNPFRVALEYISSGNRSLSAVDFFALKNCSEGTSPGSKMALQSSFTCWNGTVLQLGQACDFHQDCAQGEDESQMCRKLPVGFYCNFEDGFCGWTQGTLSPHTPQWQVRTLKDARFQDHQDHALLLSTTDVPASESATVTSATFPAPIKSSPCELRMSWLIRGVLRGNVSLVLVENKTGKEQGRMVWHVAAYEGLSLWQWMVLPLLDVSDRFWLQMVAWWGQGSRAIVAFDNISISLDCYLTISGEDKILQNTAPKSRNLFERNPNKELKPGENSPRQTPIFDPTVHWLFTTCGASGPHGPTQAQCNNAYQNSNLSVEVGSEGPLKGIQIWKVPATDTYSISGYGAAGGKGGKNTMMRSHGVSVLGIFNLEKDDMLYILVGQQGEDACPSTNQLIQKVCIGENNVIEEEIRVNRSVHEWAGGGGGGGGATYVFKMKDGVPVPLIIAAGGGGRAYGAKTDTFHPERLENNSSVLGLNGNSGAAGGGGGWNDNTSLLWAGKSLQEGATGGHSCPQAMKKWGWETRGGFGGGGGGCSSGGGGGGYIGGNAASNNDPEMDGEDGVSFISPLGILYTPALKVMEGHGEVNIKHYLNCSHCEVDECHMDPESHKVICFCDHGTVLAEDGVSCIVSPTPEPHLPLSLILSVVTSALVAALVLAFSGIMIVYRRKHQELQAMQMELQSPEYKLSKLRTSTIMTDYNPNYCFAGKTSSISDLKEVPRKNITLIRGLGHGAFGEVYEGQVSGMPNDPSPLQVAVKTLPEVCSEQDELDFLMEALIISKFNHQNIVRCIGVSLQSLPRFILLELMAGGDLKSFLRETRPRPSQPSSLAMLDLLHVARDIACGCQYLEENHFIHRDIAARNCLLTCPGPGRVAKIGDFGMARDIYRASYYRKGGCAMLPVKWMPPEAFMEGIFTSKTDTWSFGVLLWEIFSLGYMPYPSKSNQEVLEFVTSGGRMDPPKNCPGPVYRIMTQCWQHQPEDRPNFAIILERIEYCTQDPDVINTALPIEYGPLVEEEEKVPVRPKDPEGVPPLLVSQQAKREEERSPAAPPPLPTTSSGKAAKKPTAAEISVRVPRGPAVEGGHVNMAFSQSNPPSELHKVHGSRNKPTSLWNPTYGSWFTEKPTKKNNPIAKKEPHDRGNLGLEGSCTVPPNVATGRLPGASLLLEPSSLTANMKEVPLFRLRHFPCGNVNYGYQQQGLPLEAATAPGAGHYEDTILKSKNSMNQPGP
T2 sequence (P07949 whole entry, change not shown, the tested form may be a part): as the sequence (P07949 whole entry G810R, the tested form may be a part) above, with R810G counted along it

Structure (SMILES) | GI50 [1] | IC50 [2] | IC50 [3] | GI50 [4] | GI50 [5] | GI50 [6]
C[C@@H]1COc2ncc(F)cc2CN2c3nc4c(cnn4cc3O[C@H]3CCC[C@H]32)C(=O)N1 [Compound 6, (3aR,12R,20aS)-7-fluoro-12-methyl-2,3,3a,12,13,20a-hexahydro-1H,5H-17-19-(metheno)cyclopenta[5,6][1,4] oxazino[3,4-i]pyrazolo[4,3-f]pyrido[3,2-l][1,4,8,10]oxatriazacyclotridecin-14(11H)-one] | 146 nM | 1 nM | 0.2 nM | 0.2 nM | 3 nM | 573 nM
C[C@@H]1COc2c(F)cc(F)cc2CN2c3nc4c(cnn4cc3O[C@H]3CCC[C@H]32)C(=O)N1 [Compound 7, (3aR,12R,20aS)-7,9-difluoro-12-methyl-2,3,3a,12,13,20a-hexahydro-1H,5H-17-19-(metheno)cyclopenta[5,6][1,4] oxazino[3,4-i]pyrazolo[4,3-f][1,4,8,10]benzoxatriazacyclotridecin-14(11H)-one] | 675 nM | 344 nM | 37 nM | 0.2 nM | 99.2 nM | 1840 nM
C[C@H]1CNC(=O)c2cnn3cc4c(nc23)N(Cc2cc(F)cnc2O1)[C@@H]1CCCC[C@@H]1O4 [Compound 12, (4aR,12S,21aS)-8-fluoro-12-methyl-1,2,3,4,4a,13,14,21a-octahydro-6H-18, 20-(metheno)pyrazolo[4′,3′:6,7]pyrido [3′,2′:12,13][1,4,8, 10]oxatriazacyclotridecino[9,10-c][1,4]benzoxazin-15(12H)-one] | 2710 nM | 160 nM | 13.8 nM | 101 nM | 1010 nM | 4620 nM
C[C@@H]1COc2ncc(F)cc2CN2c3nc4c(cnn4cc3O[C@H]3CCCC[C@H]32)C(=O)N1 [Compound 13, (4aR,13S,21aS)-8-fluoro-13-methyl-1,2,3,4,4a,13,14,21a-octahydro-6H-18, 20-(metheno)pyrazolo[4′,3′:6,7]pyrido [3′,2′:12,13][1,4,8, 10]oxatriazacyclotridecino[9,10-c][1,4]benzoxazin-15(12H)-one] | 5000 nM | 452 nM | 28.4 nM | 342 nM | 1120 nM | > 10000 nM
C[C@H]1CCNC(=O)c2cnn3cc4c(nc23)N(Cc2cc(F)cnc2O1)[C@@H]1CCC[C@@H]1O4 [Compound 15, (3aR,11S,21aS)-7-fluoro-11-methyl-2,3,3a,12,13,14,21a-octahydro-1H,5H, 15H-18,20-(metheno)cyclopenta[5,6] [1,4]oxazino[4,3-e]pyrazolo[3,4-h]pyrido [2,3-b][1,5,7,11]oxatriazacyclotetradecin-15-one] | 364 nM | 5.2 nM | 5.1 nM | 1.1 nM | 8.7 nM | 1240 nM
C[C@@H]1CCOc2ncc(F)cc2CN2c3nc4c(cnn4cc3O[C@H]3CCC[C@H]32)C(=O)N1 [Compound 16, (3aR,13R,21aS)-7-fluoro-13-methyl-2,3,3a,11,12,13,14,21a-octahydro-1H,5H, 15H-18,20-(metheno)cyclopenta[5,6] [1,4]oxazino[4,3-e]pyrazolo[3,4-h]pyrido [2,3-b][1,5,7,11]oxatriazacyclotetradecin-15-one] | 340 nM | 47.4 nM | 45.5 nM | 16.6 nM | 41.2 nM | 5000 nM
C[C@H]1CNC(=O)c2cnn3cc4c(nc23)N(Cc2cc(F)cnc2OC1)[C@@H]1CCC[C@@H]1O4 [Compound 17, (3aR,12S,21aS)-7-fluoro-12-methyl-2,3,3a,11,12,13,14,21a-octahydro-1H,5H, 15H-18,20-(metheno)cyclopenta[5,6] [1,4]oxazino[4,3-e]pyrazolo[3,4-h]pyrido [2,3-b][1,5,7,11]oxatriazacyclotetradecin-15-one] | 616 nM | 5 nM | 4 nM | 1.8 nM | 10.7 nM | 2730 nM
O=C1NC2(CC2)COc2ncc(F)cc2CN2c3nc4c1cnn4cc3O[C@H]1CCC[C@H]12 [Compound 18, (3a′R,20a′S)-7′-fluoro-1′H,2′H,3′H,3a′H, 5′H,11′H,13′H,14′H,20a′H-spiro[cyclopropane-1,12′-[10,20]dioxa[4,9,13,16,17,18][hexaaza [17,19](metheno)cyclopenta[5,6][1,4]oxazino[3,4-i]pyrazolo[4,3-f]pyrido [3,2-l][1,4,8,10]oxatriazacyclotridecin]-14′-one] | 77.2 nM | 16.9 nM | 11.3 nM | 7.1 nM | 24.4 nM | 1530 nM
O=C1NCCCOc2ncc(F)cc2CN2c3nc4c1cnn4cc3O[C@H]1CCC[C@H]12 [Compound 19, (3aR,21aS)-7-fluoro-2,3,3a,11,12,13,14,21a-octahydro-1H,5H,15H-18,20-(metheno)cyclopenta[5,6][1,4]oxazino[4,3-e]pyrazolo[3,4-h]pyrido[2,3-b][1,5,7,11]oxatriazacyclotetradecin-15-one] | 895 nM | 73.1 nM | 7.8 nM | 5.2 nM | 78 nM | 3070 nM
O=C1NCC2(CC2)COc2ncc(F)cc2CN2c3nc4c1cnn4cc3O[C@H]1CCC[C@H]12 [Compound 20, (3a′R,21a′S)-7′-fluoro-1′H,2′H,3′H,3a′H, 5′H,11′H,13′H,14′H,15′H,21a′H-spiro[cyclopropane-1,12′-[10,21]dioxa[4,9,14,17,18,19][hexaaza [18,20](metheno)cyclopenta[5,6][1,4]oxazino[4,3-e]pyrazolo[3,4-h]pyrido [3,2-b][1,5,7,11]oxatriazacyclotetradecin]-15′-one] | 1400 nM | 2.4 nM | 0.5 nM | 1.1 nM | 7.8 nM | 1860 nM
CC1(C)COc2ncc(F)cc2CN2c3nc4c(cnn4cc3O[C@H]3CCC[C@H]32)C(=O)N1 [Compound 21, (3aR,20aS)-7-fluoro-12,12-dimethyl-2,3,3a,12,13,20a-hexahydro-1H,5H-17,19-(metheno)cyclopenta[5,6] [1,4]oxazino[3,4-i]pyrazolo[4,3-f]pyrido [3,2-l][1,4,8,10]oxatriazacyclotridecin-14(11H)-one] | 462 nM | 86.9 nM | 13.8 nM | < 0.2 nM | 82 nM | 3460 nM
O=C1NC2(CCC2)COc2ncc(F)cc2CN2c3nc4c1cnn4cc3O[C@H]1CCC[C@H]12 [Compound 22, (3a′R,20a′S)-7′-fluoro-1′H,2′H,3′H,3a′H, 5′H,11′H,13′H,14′H,20a′H-spiro[cyclobutane-1,12′-[10,20]dioxa[4,9,13,16,17,18][hexaaza [17,19](metheno)cyclopenta[5,6][1,4]oxazino[3,4-i]pyrazolo[4,3-f]pyrido [3,2-l][1,4,8,10]oxatriazacyclotridecin]-14′-one] | 157 nM | 156 nM | 49.3 nM | < 0.2 nM | 128 nM | 1760 nM
O=C1NCC2(CCC2)COc2ncc(F)cc2CN2c3nc4c1cnn4cc3O[C@H]1CCC[C@H]12 [Compound 23, (3a′R,21a′S)-7′-fluoro-1′H,2′H,3′H,3a′H, 5′H,11′H,13′H,14′H,15′H,21a′H-spiro[cyclobutane-1,12′-[10,21]dioxa[4,9,14,17,18,19][hexaaza [18,20](metheno)cyclopenta[5,6][1,4]oxazino[4,3-e]pyrazolo[3,4-h]pyrido [2,3-b][1,5,7,11]oxatriazacyclotetradecin]-15′-one] | 1680 nM | 228 nM | 52.9 nM | 98.9 nM | 422 nM | 3000 nM
